According to patent US20240049720A1, “A SYNERGISTIC AGRICULTURAL COMPOSITION” (priority 2021, published 2024):

Tests used:
[1] = system: Erwinia amylovora; assay: Foliar application on apple trees (var. gala), control of Erwinia amylovora; format: in vivo; details: apple plants var. Gala; foliar spray, three applications every 7 days; kasugamycin 3.15 g/kg and/or copper 8 g/kg (17.32 g/kg copper monoglycinate)
Excerpt: Example 4: Foliar Application of Kasugamycin and Copper Glycinate in Apple Trees (var. gala) for Controlling Erwinia amylovora
Apple trees (var. gala) were foliar sprayed with formulations having kasugamycin alone, copper glycinate alone, and combination of kasugamycin and copper glycinate. The formulation having Kasugamycin alone was applied at a dosage of 3.15 g/kg of kasugamycin (3.45 g/kg of kasugamycin hydrochloride hydrate). The formulation having copper monoglycinate was applied at a dosage of 8 g/kg of copper (17.32 g/kg of copper monoglycinate). The formulation having kasugamycin and copper monoglycinate was applied at a dosage of 3.15 g/kg of kasugamycin (3.45 g/kg of kasugamycin hydrochloride hydrate) and 8 g/kg of copper (17.32 g/kg of copper monoglycinate).
Three applications were made every 7 days when the first symptoms of the disease appeared, and the % control of Erwinia amylovora was determined. Control percentage of Erwinia amylovora with the K+CuGly mixture, as well as of kasugamycin and copper monoglycinate separately, are provided in Table 3 below: […]

[2] = system: Alternaria alternata; assay: In vitro control of Alternaria alternata on PDA medium; format: cell-based; details: dose 1 L/400 L water, mixture in 1:1 ratio, 28-30° C, dark, evaluated 7 days later
Procedure: In Vitro Control of Alternaria alternata Using Kasugamycin and Copper Glycinate
Alternaria alternata was cultivated was in solid potato dextrose agar medium. The efficacy of the mixture of kasugamycin and copper glycinate in a 1:1 ratio, and each component individually was tested.
(§1) The in vitro assessment of the products effectiveness was carried out as per the treatments discussed in Table 6. Accordingly, the components in each treatment were dissolved in PDA culture medium at the dose indicated above. The mixture was homogenized and poured into sterile petri dishes. Explants of 5 mm diameter of the fungus strain Alternaria alternata were placed on the petri dishes with PDA. The dishes were incubated inverted, in dark conditions at a temperature of 28-30° C. The evaluation of the inhibition of the fungus was carried out 7 days later. Control percentage of Alternaria alternata with the K+CuGly mixture, as well as of kasugamycin and copper monoglycinate separately are provided in Table 5 below: […]

[3] = system: Fusarium spp; assay: In vitro control of Fusarium spp on PDA medium; format: cell-based; details: strain isolated from potato, dose 1 L/400 L water, mixture in 1:1 ratio, 28-30° C, dark, evaluated 7 days later
Procedure: In Vitro Control of Fusarium spp Using Kasugamycin and Copper Glycinate
A strain of Fusarium spp isolated from potato was cultivated was in solid potato dextrose agar medium. The efficacy of the mixture of kasugamycin and copper glycinate in a 1:1 ratio, and each component individually was tested.
as §1, with “Table 4.” for “Table 6.”, “strain Fusarium spp.” for “strain Alternaria alternata”, “of Fusarium sp.” for “of Alternaria alternata”

[4] = system: Xanthomonas campestris pv. vesicatoria; assay: Foliar application on tomato plants (var. Pony express), control of bacterial disease; format: in vivo; details: foliar spray, three applications every 7 days, kasugamycin 2.1 g/kg and/or copper 8 g/kg (17.32 g/kg copper monoglycinate)
Excerpt: Example 3: Foliar Application of Kasugamycin and Copper Glycinate in Tomato Plants (Var. Pony Express) for Controlling Xanthomonas campestris pv. vesicatoria
Tomato plants (var. Pony express) were foliar sprayed with formulations having kasugamycin alone, copper monoglycinate alone, and combination of kasugamycin and copper monoglycinate. The formulation having kasugamycin alone was applied at a dosage of 2.1 g/kg of kasugamycin (2.3 g/kg of kasugamycin hydrochloride hydrate) and the treatment was designated as T1. The formulation having copper monoglycinate was applied at a dosage of 8 g/kg of copper (17.32 g/kg of copper monoglycinate) and the treatment was designated as T2. The formulation having kasugamycin and copper monoglycinate was applied at a dosage of 2.1 g/kg of kasugamycin (2.3 g/kg of kasugamycin hydrochloride hydrate) and 8 g/kg of copper (17.32 g/kg of copper monoglycinate) and the treatment was designated as T3.
Three applications were made every 7 days when the first symptoms of the disease appeared, and the % control of […] was determined. Control percentage of Xanthomonas campestris pv. vesicatoria with the K+CuGly mixture, as well as of kasugamycin and copper glycinate separately are provided in Table 2 below: […]

Molecule	% control of Erwinia amylovora [1] [%]	% Control of Alternaria alternata [2] [%]	% control of Fusarium sp. [3] [%]	% control of Xanthomonas campestris pv. vesicatoria [4] [%]
C[C@H]1O[C@H](O[C@H]2[C@H](O)[C@@H](O)[C@@H](O)[C@H](O)[C@@H]2O)[C@@H](N)C[C@@H]1NC(=N)C(=O)O [Kasugamycin]	55.6	79	55	93.2
Copper monoglycinate [Copper glycinate]	50	53	39	80.5
